Assay results: patent US8785424B2, “ngCycloartanone derivatives with anticancer activity” (Pierre Fabre Medicament, priority 2009, dated 2014)
Structures can show the parent of a compound that is named as a salt.

Test system: proteasome
Experiment: Cellular proteasome inhibition test: accumulation of 4Ub-Luc reporter (luciferase activity) in DLD-1 4Ub-Luc cell line
Type: cell-based, human
Settings: DLD-1 4Ub-Luc cells; for relative induction factor (IF % luminescence) versus epoxomicin: 8 hours, epoxomicin = 100%
Protocol: Biological tests were carried out according to protocols described in the following articles: Ausseil F. et al. J. Biomol Screen. 2007, 12, 106-116 and Vandenberghe I. et al. Biochemical Pharmacology 2008, 76, 453-462.
In order to select novel proteasome inhibitor compounds, it is necessary to indirectly measure the activity of this proteasome within cells. To this end, we constructed a stable cell line, DLD-1 4Ub-Luc, arising from a human colon cancer cell line, which produces a chimeric reporter protein called 4Ub-Luc. This protein is a fusion between a 4-ubiquitin (4Ub) label and luciferase (Luc). This label is capable to direct every proteins that carry it toward the proteasome. The 4Ub-Luc protein is thus efficiently degraded by the proteasome, in contrast to the “wild” non-fused Luc protein. When the DLD-1 4Ub-Luc cell line is treated with a proteasome inhibitor, the fusion protein is much less efficiently degraded and accumulates in the cell. This accumulation is detected by an increase in luciferase activity in the treated extract compared to the extract from untreated cells. The control consists of verifying that the inhibitor has no effect on accumulation of the wild Luc protein produced by the stable DLD-1 RF cell line. For both cell lines and for each product an induction factor is determined for the product tested (or the reference) corresponding to the ratio between the luciferase activities measured in cells treated with this product (or the reference) and cells treated with solvent alone.
The product's activity is then defined by its relative induction factor, i.e., the ratio of its induction factor (IF % luminescence) to that of the reference molecule epoxomicin (IF=100%; see data presented in the table below).
Thus, the test established by Pierre-Fabre is a cellular test that has the advantage, compared to a purely enzymatic test, of detecting only products capable of penetrating the cell.
Two cell lines are used for this test: DLD-1 RF and DLD-1 4Ub-Luc. The culture medium used is as follows: • MEM • 5% fetal calf serum • 5 ml of penicillin-streptomycin • 2.5 ml of FUNGIZONE® (Amphotericin B) • 10 ml of […]
Day 1: Inoculate white 96-well culture-treated plates (PerkinElmer White ViewPlate, product no. 6005181) with 100 μl of 1·10^5 c/ml cell suspension per well. Incubate for 24 hours so that the cells adhere. On each plate five columns will be inoculated with DLD-1 4Ub-Luc and five others with DLD-1 RF according to diagram 1 below.
Day 2: Remove the medium by turning the plates upside down on cotton, and then carry out the treatment with the compounds of the invention, with solvent alone or with a reference compound such as epoxomicin. […]
The columns are paired (examples 2 and 8, 3 and 9, 4 and 10 and 5 and 11) and treated with the same compound. Columns 6 and 7 receive the experimental control, namely 0.1% DMSO in culture medium for wells B, C, D, and E of columns 6 and 7, and the positive control (10^−7 M epoxomicin) in wells F and G.
After incubation, turn the plate upside down on cotton to empty the wells, rinse with 50 μl of PBS to remove any trace of the cytotoxin tested and then add 50 μl of 5× passive lysis buffer (Promega, product no. E1941) diluted to ⅕ in water. Shake energetically using a plate shaker for 5 to 10 minutes at room temperature before freezing at −20° C.
Luciferase activity is measured using a Luciferase Assay System 10-Pack kit (Promega, product no. E1501).
On the day luciferase activity is to be measured, defrost the plates and wait until they have returned to room temperature. The optimal temperature for luciferase activity is 20-25° C.
Reconstitute the firefly luciferase substrate by defrosting the buffer and then adding 10 ml of buffer to the bottle containing the freeze-dried substrate. Wait until the solution is at room temperature before beginning the assay. […]

[1] = concentration tested 5 · 10^−6 M
[2] = concentration tested 5 · 10^−7 M

Compound	relative induction factor (IF % luminescence) versus epoxomicin (concentration tested 5 · 10^−6 M, hydrochloride) [%]	relative induction factor (IF % luminescence) versus epoxomicin (concentration tested 5 · 10^−7 M, hydrochloride) [%]	relative induction factor (IF % luminescence) versus epoxomicin (concentration tested 10^−5 M, hydrochloride) [%]	relative induction factor (IF % luminescence) versus epoxomicin (concentration tested 10^−6 M, hydrochloride) [%]	relative induction factor (IF % luminescence) versus epoxomicin [1] [%]	relative induction factor (IF % luminescence) versus epoxomicin (concentration tested 10^−5 M) [%]	relative induction factor (IF % luminescence) versus epoxomicin (concentration tested 10^−6 M) [%]	induction factor of the reference (IF % luminescence) (reference molecule at 10^−7 M, set to IF=100%) [%]	relative induction factor (IF % luminescence) versus epoxomicin [2] [%]
C=C(C(=O)[C@H](O)[C@@H](C)[C@H]1[C@@H](OC(C)=O)C[C@@]2(C)[C@@H]3CC[C@H]4[C@H](C)C(=O)C=C[C@@]45C[C@@]35CC[C@]12C)[C@@H](C)COC(=O)N1CCN(C)CC1 [Compound 24, 26-N—(N-methylpiperazine)carbamate-22-deacetyl-neoboutomellerone hydrochloride]	5	12	1	70					
C=C(C(=O)[C@H](OC(C)=O)[C@@H](C)[C@H]1[C@@H](OC(C)=O)C[C@@]2(C)C3CCC4[C@H](C)C(=O)C=C[C@@]45C[C@@]35CC[C@]12C)[C@@H](C)COC(=O)CNC(=O)OC(C)(C)C (some centres unmarked) [Compound 56, Neoboutomellerone 26-N-Boc-glycinate]					34	7	21		
CC[C@H](C)[C@H](NC(=O)[C@H]([C@@H](C)CC)N(C)C(C)=O)C(=O)N[C@H](C(=O)N[C@@H](CC(C)C)C(=O)[C@@]1(C)CO1)[C@@H](C)O [epoxomicin, reference compound]								100	
C=C(C(=O)[C@H](OC(C)=O)[C@@H](C)[C@H]1[C@@H](OC(C)=O)C[C@@]2(C)C3CCC4[C@H](C)C(=O)C=C[C@@]45C[C@@]35CC[C@]12C)[C@@H](C)COC(=O)CCC(=O)O (some centres unmarked) [Compound 68, 26-succinate-neoboutomellerone]					18	4	52		1
C=C(C(=O)[C@H](O)[C@@H](C)[C@H]1[C@@H](OC(C)=O)C[C@@]2(C)[C@@H]3CC[C@H]4[C@H](C)C(=O)C=C[C@@]45C[C@@]35CC[C@]12C)[C@@H](C)COC(=O)N1CCN(C)CC1 [Compound 23, 26-N—(N-methylpiperazine)carbamate-22-deacetyl-neoboutomellerone]					7	2	69		15
CC(=O)O[C@H]1C[C@@]2(C)[C@@H]3CC[C@H]4[C@H](C)C(=O)C=C[C@@]45C[C@@]35CC[C@]2(C)[C@H]1[C@H](C)[C@@H](OC(C)=O)C(=O)C=C(C)C [Compound 9, 26-dehydroxy,24,25-dehydro-nor-neoboutomellerone]					34	44	1		
C=C(C(=O)[C@H](O)[C@@H](C)[C@H]1[C@@H](OC(C)=O)C[C@@]2(C)[C@@H]3CC[C@H]4[C@H](C)C(=O)C[C@H](O)[C@@]45C[C@@]35CC[C@]12C)[C@@H](C)CO [Compound 15, 1-hydroxy-2-hydro-22-deacetyl-neoboutomellerone]					11	74	2		
CC(=O)O[C@H]1C[C@@]2(C)[C@@H]3CC[C@H]4[C@H](C)C(=O)C=C[C@@]45C[C@@]35CC[C@]2(C)[C@H]1[C@H](C)[C@@H](O)C(=O)C=C(C)C [Compound 10, 22-deacetyl,26-dehydroxy,24,25-dehydro-nor-neoboutomellerone]					5	53	1		
C=C(C(=O)[C@H](O)[C@@H](C)[C@H]1[C@@H](OC(C)=O)C[C@@]2(C)C3CCC4[C@H](C)C(=O)C=C[C@@]45C[C@@]35CC[C@]12C)[C@@H](C)COC(=O)CCC(=O)O (some centres unmarked) [Compound 71, 26-succinate-22-deacetyl-neoboutomellerone]					11	4	62		6
